Assay results published in EP0547191B1, “PARTICULATE VECTOR HAVING SELECTIVE TROPISM, METHOD OF PREPARATION AND PHARMACEUTICAL COMPOSITION” (BIOVECTOR THERAPEUTICS SA, priority 1991, dated 1992).

Test system: fibroblastes humains normaux
Experiment: Flow cytofluorimetry: cellular incorporation of doxorubicin measured by emitted fluorescence
Format: cell-based
Settings: fibroblasts after 48h in lipoprotein-depleted medium
Method: Après 48h de culture en milieu délipoprotéiné, les fibroblastes humains normaux sont incubés avec de la doxorubicine sous forme libre ou encapsulée dans des BVSM ou des BVSM-apoB. Après incubation, de 0, à 2h, ils sont lavés, mis en contact avec de la trypsine 0,05% pendant 1min à37°C, repris en suspension dans du milieu de culture et fixés par du paraformaldéhyde. Les suspensions cellulaires obtenues sont analysées à l'aide d'un cytofluorimètre de flux (Becton-Dickinson Fac-scan) et l'incorporation cellulaire de la doxorubicine est mesurée par l'intensité de fluorescence émise. Les témoins fibroblastes avec BVSM et BVSM-apoB sans doxorubicine ne présentent aucune fluoresence.
Les résultats obtenus sont présentés dans le tableau suivant : […]

With `COc1cccc2c1C(=O)c1c(O)c3c(c(O)c1C2=O)C[C@@](O)(C(=O)CO)C[C@@H]3O[C@H]1C[C@H](N)[C@H](O)[C@H](C)O1` [Doxorubicine libre, doxorubicine] the “Intensité de fluorescence émise” value (Temps d'incubation 0 min) was 5, the “Intensité de fluorescence émise” value (Temps d'incubation 10 min) was 22 and the “Intensité de fluorescence émise” value (Temps d'incubation 30 min) was 25. The “Intensité de fluorescence émise” value (Temps d'incubation 60 min) was 31 and the “Intensité de fluorescence émise” value (Temps d'incubation 120 min) was 42.
